Reference: the supplement of paper PMC4977894
Where a name gives a salt, the structure may show the parent alone. ± gives the standard deviation of the averaged measurements.

How the values were obtained:
[1] = tested on: Homo sapiens (human subject panel, olfactory perception); assay: perceived odor pleasantness rating (rating 0-100); higher = more pleasant
Description: (§1)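 Human olfactory psychophysics. 55 healthy subjects (after excluding 6 low performers) sniffed 1 mL of each odorant diluted in paraffin oil (vials, two dilutions per molecule, 20 molecules presented twice). Each subject rated intensity, pleasantness and familiarity on a 0-100 slider, starting at 50 and required to move. Ratings were given only when the subject reported detecting a smell; per-subject ratings are averaged over subjects.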

[2] = tested on: Homo sapiens (human subject panel, olfactory perception); assay: perceived odor familiarity rating (rating 0-100); higher = more familiar
Description: as §1

[3] = tested on: Homo sapiens (human subject panel, olfactory perception); assay: perceived odor intensity rating (rating 0-100); higher = stronger perceived smell
Description: as §1

[4] = odor dilution in paraffin oil: 1/1,000
[5] = odor dilution in paraffin oil: 1/100,000
[6] = odor dilution in paraffin oil: 1/10,000,000
[7] = odor dilution in paraffin oil: 1/10

| SMILES | perceived odor pleasantness rating [1, 4] | perceived odor pleasantness rating [1, 5] | perceived odor familiarity rating [2, 4] | perceived odor familiarity rating [2, 5] | perceived odor intensity rating [3, 4] | perceived odor intensity rating [3, 5] | perceived odor pleasantness rating [1, 6] | perceived odor familiarity rating [2, 6] | perceived odor intensity rating [3, 6] | perceived odor pleasantness rating [1, 7] | perceived odor familiarity rating [2, 7] | perceived odor intensity rating [3, 7] |
| --- | --- | --- | --- | --- | --- | --- | --- | --- | --- | --- | --- | --- |
| c1ccccc1 [Benzene] | 51.7 ± 20 | 39.4 ± 22 | 26.1 ± 24 | 27.4 ± 25 | 11.2 ± 14 | 19.8 ± 26 | – | – | – | – | – | – |
| Sc1ccccc1 [Benzenethiol] | – | 24.6 ± 23 | – | 45.1 ± 30 | – | 63.4 ± 34 | 41.9 ± 24 | 31.3 ± 28 | 13 ± 22 | – | – | – |
| O=C(O)c1ccccc1 [Benzoic acid] | 34.9 ± 22 | 55.5 ± 25 | 34.4 ± 25 | 38.7 ± 30 | 30.3 ± 27 | 20.2 ± 24 | – | – | – | – | – | – |
| O=C(OCc1ccccc1)c1ccccc1 [Benzyl benzoate] | 48.6 ± 21 | – | 42.4 ± 31 | – | 19.8 ± 24 | – | – | – | – | 46.9 ± 24 | 38.5 ± 26 | 53.3 ± 30 |
| c1ccc(CSSCc2ccccc2)cc1 [Benzyl disulfide] | 26.8 ± 22 | – | 49.1 ± 32 | – | 63.6 ± 27 | – | – | – | – | 24.2 ± 25 | 48.2 ± 34 | 81.2 ± 20 |
| c1ccc(COCc2ccccc2)cc1 [Benzyl ether] | 49.2 ± 23 | – | 31 ± 26 | – | 25.2 ± 26 | – | – | – | – | 67.8 ± 27 | 63.8 ± 32 | 75.7 ± 24 |
| S=C=NCc1ccccc1 [Benzyl isothiocyanate] | 15.1 ± 19 | 29 ± 23 | 40.9 ± 32 | 43.4 ± 26 | 80.9 ± 20 | 55 ± 30 | – | – | – | – | – | – |
| O=C(Cc1ccccc1)OCc1ccccc1 [Benzyl phenylacetate] | 31 ± 26 | 47 ± 20 | 49.8 ± 32 | 37.3 ± 31 | 54.4 ± 30 | 37.4 ± 35 | – | – | – | – | – | – |
| CCC(=O)OCc1ccccc1 [Benzyl propionate] | 67.2 ± 23 | 44 ± 28 | 50.7 ± 32 | 34.5 ± 24 | 53 ± 30 | 30 ± 32 | – | – | – | – | – | – |
| O=C(OCc1ccccc1)c1ccccc1O [Benzyl salicylate] | 53.6 ± 24 | – | 38 ± 28 | – | 28.4 ± 28 | – | – | – | – | 57.6 ± 23 | 40.7 ± 29 | 48.6 ± 30 |
| c1ccc(-c2ccccc2)cc1 [Biphenyl] | 51.4 ± 21 | – | 36.2 ± 28 | – | 31.7 ± 26 | – | – | – | – | 31.3 ± 24 | 42.5 ± 33 | 77.6 ± 20 |
| CSCSC [Bis(methylthio)methane] | – | 25.1 ± 25 | – | 50.3 ± 34 | – | 78.7 ± 22 | 45.4 ± 25 | 38.9 ± 31 | 33.8 ± 26 | – | – | – |
| CC(=O)OC1CC2CCC1(C)C2(C)C (configuration not stated) [Bornyl acetate] | 45.2 ± 22 | 45.7 ± 24 | 44.2 ± 29 | 28.9 ± 26 | 36.1 ± 30 | 29.9 ± 28 | – | – | – | – | – | – |
| C=CCCCCCCCCC(=O)OCCCC [Butyl 10-undecenoate] | 42.2 ± 19 | – | 44.4 ± 32 | – | 31.9 ± 33 | – | – | – | – | 35.1 ± 27 | 50 ± 30 | 58.1 ± 30 |
| CCCCOC(=O)[C@H](C)O [Butyl (S)-(-)-lactate] | 50.2 ± 28 | 48.8 ± 23 | 50.4 ± 32 | 39.5 ± 25 | 55.5 ± 29 | 33.6 ± 34 | – | – | – | – | – | – |
| CCCCOC(=O)CC [Butyl Propionate] | 54.6 ± 26 | 46.5 ± 25 | 50.6 ± 30 | 31.9 ± 33 | 62 ± 25 | 18 ± 25 | – | – | – | – | – | – |
| CCCCOC=O [Butyl formate] | 45.4 ± 28 | 44.1 ± 28 | 49.7 ± 29 | 29.1 ± 29 | 51.8 ± 32 | 8.38 ± 15 | – | – | – | – | – | – |
| CCCCOC(=O)Cc1ccccc1 [Butyl phenylacetate] | 47.2 ± 28 | 45.9 ± 22 | 51.6 ± 30 | 41.3 ± 32 | 53.1 ± 31 | 24.8 ± 25 | – | – | – | – | – | – |

| SMILES | perceived odor pleasantness rating [1, 4] | perceived odor pleasantness rating [1, 5] | perceived odor familiarity rating [2, 4] | perceived odor familiarity rating [2, 5] | perceived odor intensity rating [3, 4] | perceived odor intensity rating [3, 5] | perceived odor pleasantness rating [1, 6] | perceived odor familiarity rating [2, 6] | perceived odor intensity rating [3, 6] | perceived odor pleasantness rating [1, 7] | perceived odor familiarity rating [2, 7] | perceived odor intensity rating [3, 7] |
| --- | --- | --- | --- | --- | --- | --- | --- | --- | --- | --- | --- | --- |
| CCCCN [Butylamine] | – | 50.8 ± 27 | – | 36 ± 29 | – | 16.3 ± 22 | 44.4 ± 25 | 32.7 ± 27 | 21.8 ± 24 | – | – | – |
| Cc1cc(C(C)(C)C)c(O)c(C(C)(C)C)c1 [Butylated hydroxytoluene] | 51.4 ± 22 | – | 27.7 ± 29 | – | 16.9 ± 24 | – | – | – | – | 51.9 ± 24 | 43.4 ± 29 | 40.3 ± 31 |
| CC12CCC(CC1=O)C2(C)C (configuration not stated) [Camphor] | 49.5 ± 25 | 53.1 ± 22 | 54.4 ± 30 | 31.3 ± 29 | 57.4 ± 30 | 17.3 ± 20 | – | – | – | – | – | – |
| Cc1ccc(C(C)C)cc1O [Carvacrol] | 48 ± 28 | 53.2 ± 24 | 62.7 ± 31 | 58.8 ± 32 | 74.1 ± 20 | 50.4 ± 26 | – | – | – | – | – | – |
| OC/C=C/c1ccccc1 [Cinnamyl alcohol] | – | 32 | – | 52 | – | 6 | – | – | – | – | – | – |
| O=C(O)CC(O)(CC(=O)O)C(=O)O [Citric acid] | 46.7 ± 28 | – | 28.5 ± 31 | – | 14.7 ± 22 | – | – | – | – | 51.7 ± 26 | 33.9 ± 30 | 27.4 ± 28 |
| O=C1CCCCCC1 [Cycloheptanone] | 40.8 ± 28 | 55 ± 19 | 52.7 ± 30 | 35.8 ± 30 | 69 ± 28 | 26.4 ± 28 | – | – | – | – | – | – |
| C1CCCCC1 [Cyclohexane] | 40.5 ± 24 | – | 51.6 ± 32 | – | 49 ± 34 | – | – | – | – | 48.2 ± 27 | 55.1 ± 29 | 57.4 ± 34 |
| O=C(O)CC1CCCCC1 [Cyclohexaneacetic acid] | 28.8 ± 22 | 37.6 ± 23 | 46.9 ± 28 | 32.8 ± 25 | 69.9 ± 22 | 29.4 ± 30 | – | – | – | – | – | – |
| O=C1CCCCC1 [Cyclohexanone (replicate)] | 46 ± 27 | 55.4 ± 24 | 51.6 ± 30 | 28.4 ± 28 | 66.5 ± 26 | 20.8 ± 29 | – | – | – | – | – | – |
| O=C1CCCCC1 [Cyclohexanone] | 38 ± 27 | 47.9 ± 23 | 52.5 ± 28 | 26.7 ± 25 | 69.9 ± 22 | 19.6 ± 27 | – | – | – | – | – | – |
| SC1CCCC1 [Cyclopentanethiol] | – | 16.5 ± 22 | – | 55.4 ± 34 | – | 92.4 ± 10 | 24 ± 23 | 57.8 ± 33 | 78.1 ± 21 | – | – | – |
| O=C1CCCC1 [Cyclopentanone] | 36 ± 25 | – | 33.1 ± 30 | – | 52.3 ± 33 | – | – | – | – | 29.6 ± 25 | 48.9 ± 34 | 81.4 ± 23 |
| CC12CCC(CC1=O)C2(C)C [D-Camphor] | 52.3 ± 28 | – | 68.5 ± 25 | – | 63.8 ± 31 | – | – | – | – | 52.1 ± 30 | 81 ± 26 | 89.8 ± 17 |
| C=C(C)[C@@H]1CC[C@@H](C)C(=O)C1 [D-Dihydrocarvone] | 50.2 ± 23 | – | 47.2 ± 28 | – | 45.9 ± 29 | – | – | – | – | 39.5 ± 26 | 52.5 ± 34 | 81.9 ± 16 |
| OC[C@@H](O)[C@@H](O)[C@H](O)[C@@H](O)CO [D-Sorbitol] | 45 ± 28 | – | 44.6 ± 31 | – | 39 ± 33 | – | – | – | – | 29.8 ± 27 | 55.1 ± 31 | 73.4 ± 22 |
| OC1CCC2CCCCC2C1 (configuration not stated) [Decahydro-2-naphthol] | 49.9 ± 26 | 50.6 ± 24 | 48.7 ± 29 | 36.3 ± 32 | 54.8 ± 29 | 23.1 ± 27 | – | – | – | – | – | – |
